Patent US6436903B1, “Immunomodulating compounds comprising d-isomers of amino acids” (Stanford University (Board of Trustees of the Leland …, priority 1996, dated 2002)
Entries after “also recorded” stand apart in the source; their conditions may differ. No end group written: not given here.

Legend:
[1] = test system: CD8+ CTL line specific for HLA-A2; experiment: Cytotoxicity assay: inhibition of lysis by established CTL (51Cr-labeled JY targets); format: cell-based, human
Experimental: CTL assays were performed as described using ^51Cr-labeled EBV transformed B cells expressing the appropriate HLA allele as targets [[…] et al., J. Immunol. (1982) 129:2001]. In the present protocol, a CD8+ CTL line specific for HLA-A2 was tested in the presence of various peptides for lysis of ^51Cr-labeled JY targets. Peptides were added to a final concentration of 100 μg/ml at the initiation of the 4 h assay. Each determination was the mean of triplicate wells.

draining lymph nodes = experiment: Lymph node proliferation assay (footpad challenge with allogeneic versus syngeneic splenocytes); format: in vivo, rat; settings: treated within 24 hours of footpad injection
Experimental: ACI or PVG rats (200 g) were injected intravenously with peptides dissolved in saline on day 0. On the indicated days thereafter, the left rear footpads of the rats were injected with 5×10^6 splenocytes from a syngeneic donor and the right rear footpads with 5×10^6 splenocytes from an allogeneic Lew donor (Moeller etal. Transplantation (1993)55:650). See also Twist and Barnes Transplantation (1973) 15:182; Fanslow et al. Science (1990) 248:739). Seven days after the footpad injection, the animals were sacrificed and the popliteal lymph nodes removed. A single cell suspension was prepared, and the cell number determined using a hemocytometer.
PVG or ACI rats (3 per group) were given a single intravenous injection of 2 mg of each of the four peptides or saline. On the day of treatment, or on days 1, 7, or 10 after treatment, the right footpads were injected with 5×10^6 syngeneic splenocytes while the left footpads were injected with 5×10^6 allogeneic Lew splenocytes. Seven days after the footpad injections, the draining lymph nodes were removed, a single cell suspension was prepared, and the cell number determined.

[2] = test system: Lew specific CTL precursors in splenocytes; experiment: Limiting dilution assay for CTL precursors in splenocytes of treated rats; format: in vivo, rat; settings: treated on the day of splenectomy or 24 hours earlier
Experimental: The effect of peptides on CTL precursor frequencies in splenocytes was tested as follows. Limiting dilution analysis was carried out essentially as described (Moeller et al. 1993, supra; Skinner and Marbrook. J. Exp. Med. (1976) 143:1562). Briefly, spleens were removed from naive animals or from animals that had received an allograft a minimum of 60 days earlier and then teased into a single cell suspension. Responder cells were plated from 1000 to 40,000 cells per well (24 replicates per concentration) into round bottom microliter wells in RPMI 1640 supplemented with 10% fetal bovine serum (Hyclone, Logan, Utah), 2 mM L-glutamine, 5×10^5M μ-mercaptoethanol, 100 U/ml penicillin, 100 μg/ml streptomycin, 20% supernatant from Concanavalin A activated rat spleen cells, and 50 μM α-methyl mannoside. Then, 5×10^5 irradiated (2000 rads) stimulator cells were added to each well and plates were incubated in a humidified CO2 incubator. […] Aliquots of supernatant were counted in a gamma counter and CTL precursor frequency determined by linear regression (Skinner and Marbrook. 1976, supra). […]
PVG (RT1^c) or ACI (RT1^a) rats were treated with a single intravenous injection of saline or 2 mg of A2.75-84, B7.75-84, B2702.75-84, or RT1^a.75-84 peptide. […] CTL precursor frequency was determined by linear regression analysis.

rat splenocytes = experiment: Differentiation of rat splenocytes into allospecific CTL in vitro; format: cell-based
purified T cells = experiment: Proliferation of purified T cells stimulated by immobilized anti-CD3; format: cell-based, human; settings: immobilized anti-CD3 antibody
Experimental: PBL were isolated from normal donors by centrifugation over Ficoll-Hypaque. In some cases, T cells were purified from this preparation using the method of Secrist et al. [J Exp. Med. (1993) 178:2123]. Briefly, cells isolated over Ficoll-Hypaque were incubated for 1 hour in Petri dishes. Nonadherent cells were passed over a nylon wool column and the resulting population was >90% CD3+ by FACS analysis. CD8+ CTL lines specific for HLA-A2, B7, B27, B48, or Cw4 were generated and maintained in long-term culture as previously described [Buxton et al., J Exp. Med. (1992) 175:809; Wesley et al., Hum. Immunol. (1993) 36:149]. Jurkat E6-1 and the T cell receptor negative Jurkat, JRT3-T3.5, were obtained from the American Type Culture Collection (ATCC; Rockville, Md.). […]
10^5 cells were added to microtiter wells that had been coated with anti-CD3 (Sigma, St. Louis, Mo.) at 5 μg/ml. […] Plates were harvested on a PHD Cell Harvester 24 hours later and [^3H]-thymidine incorporation determined by scintillation counting.
Peptides were evaluated for effects on the proliferation of purified T cells stimulated by immobilized anti-CD3 antibody. […]

[3] = test system: abdominal heterotopic heart allografts; experiment: Cardiac allograft survival in rats (Lew heart into ACI recipients); format: in vivo, rat; settings: peptide in the two weeks before or 4 days after surgery plus CsA on days 0-4, rats
Source text: Vascularized cardiac allografts were heterotypically transplanted into the abdomen of recipient rats using a modification of the technique of Ono and Lindsay (Ono and Lindsey J. Thorac. Cardiovasc. Surg. (1969) 57:225). Abdominal allografts were palpated on a daily basis to assess graft function, and rejection was deemed complete when palpable ventricular contractions ceased.
Cyclosporin A (CsA, Sandoz Pharmaceuticals Corporation, Base, Switzerland) dissolved in olive oil was given orally through a gavage tube at the indicated dose. Peptides were dissolved in water or saline and given intravenously or by gavage as indicated.
Since the B7.75-84 and B2702.75-84 peptides blocked cellular immunity in vivo, we examined their effects on allograft survival in rats. ACI (RT1^a) recipients were given abdominal heterotopic heart allografts from Lew donors (Moeller et al. 1993, supra; Ono and Lindsey. 1969, supra). Graft function was monitored by daily abdominal palpation, and rejection was scored as complete when the palpable ventricular contractions ceased.

WDRETQICKAKAQTDRENLRIALRY [Peptide B2702.60-84]
potency relative to B2702.75-84, based on the concentration required to achieve 50% inhibition of cytotoxicity [1]: approximately 5 fold

B2702.75-84: synthetic peptide, HLA-B2702 residues 75-84, sequence RENLRIALRY [Peptide B2702.75-84]
ratio of the number of cells recovered, allogeneic versus syngeneic side (draining lymph nodes): A similar ratio
precursor frequency of Lew specific cells compared with saline [2]: The same frequency
inhibition of lysis by established CTL ([1]; HLA-A2 specific CD8+ CTL, 51Cr-labeled JY targets, peptide 100 μg/ml, 4 h assay): inhibited lysis by established CTL
blocking of differentiation of rat splenocytes into allospecific CTL (rat splenocytes): blocked the differentiation of rat splenocytes into allospecific CTL in vitro
inhibition of proliferation of purified T cells (3H-thymidine incorporation) (purified T cells): do not
allograft rejection under peptide in combination with CsA [3]: rejected similarly to allografts in animals treated with CsA alone; also recorded: did not show prevention of allograft rejection
